Experimental data: patent US9018208B2, “Heterocycles as potassium channel modulators” (Icagen Inc., priority 2007, dated 2015)

What follows are compounds tested on SH-SY5Y M-currents (KCNQ2, KCNQ3 and KCNQ5) (assay: SH-SY5Y native cell line FLIPR assay (voltage-sensitive dye DiBAC)). Settings: FLIPR assay, SH-SY5Y native cell line; Table 1; read-out: SH-SY5Y EC50.
Type: cell-based, mouse neuroblastoma, rat glioma hybrid cell line
Method in brief: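 Response is peak DiBAC fluorescence change, normalised to the maximum from a positive control agent, sampled every 30 s over 25 min. Before compound addition, SH-SY5Y cells differentiated with PGE1 plus isomethylbutylxanthine were dye-loaded for 1 h in EBSS with […] DiBAC.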

EC50 [nM]	Compound
< 500	O=C(Cc1cc(F)cc(F)c1)Nc1nc2ccc(C(F)(F)F)cn2c1C1CC1 [Compound 80, N-(3-cyclopropyl-6-(trifluoromethyl)imidazo[1,2-a]pyridin-2-yl)-2-(3,5-difluorophenyl)acetamide]
3000 to 10000	CC(=O)Nc1nc2ccc(C(F)(F)F)cn2c1CC(C)(C)C [Compound 62, N-(3-neopentyl-6-(trifluoromethyl)imidazo[1,2-a]pyridin-2-yl)acetamide]
< 500	O=C(Nc1nc2ccc(C(F)(F)F)cn2c1C1CCCC1)C1CCCC1 [Compound 55, N-(3-cyclopentyl-6-(trifluoromethyl)imidazo[1,2-a]pyridin-2-yl)cyclopentanecarboxamide]
< 500	CC(C)(C)Cc1c(NC(=O)CC(F)(F)F)nc2ccc(C(F)(F)F)cn12 [Compound 60, 3,3,3-trifluoro-N-(3-neopentyl-6-(trifluoromethyl)imidazo[1,2-a]pyridin-2-yl)propanamide]
500 to 3000	O=C(Nc1nc2ccc(C(F)(F)F)cn2c1C1CC1)C1CC1(F)F (stereo not shown) [Compound 85, N-(3-cyclopropyl-6-(trifluoromethyl)imidazo[1,2-a]pyridin-2-yl)-2,2-difluorocyclopropanecarboxamide]

Same assay, conditions: FLIPR assay, SH-SY5Y native cell line; Table 2; read-out: SH-SY5Y EC50

EC50 [nM]	Compound
3000 to 10000	CC(C)(C)CC(=O)Nc1nc2ncc(Cl)cn2c1-c1ccc(C(F)(F)F)cc1 [Compound 322, N-(6-chloro-3-(4-(trifluoromethyl)phenyl)imidazo[1,2-a]pyrimidin-2-yl)-3,3-dimethylbutanamide]
< 500	Cc1ccc2nc(NC(=O)CC(C)(C)C)c(-c3cccc(OC(F)(F)F)c3)n2n1 [Compound 305, 3,3-dimethyl-N-(6-methyl-3-(3-(trifluoromethoxy)phenyl)imidazo[1,2-b]pyridazin-2-yl)butanamide]

More lines, now with the values behind:

Compound	EC50 [nM]
O=C(Cc1ccc(F)cc1)Nc1nc2cc(C(F)(F)F)ccn2c1-c1ccc(F)cc1F [Compound 122, N-(3-(2,4-difluorophenyl)-7-(trifluoromethyl)imidazo[1,2-a]pyridin-2-yl)-2-(4-fluorophenyl)acetamide]	500 to 3000
O=C(Cc1ccc(F)cc1)Nc1nc2ccc(Cl)cn2c1-c1ccc(F)cc1 [Compound 131, N-(6-chloro-3-(4-fluorophenyl)imidazo[1,2-a]pyridin-2-yl)-2-(4-fluorophenyl)acetamide]	< 500
O=C(NCCc1ccc(F)cc1)Nc1nc2ccc(F)cn2c1-c1ccc(C(F)(F)F)cc1 [Compound 213, 1-(6-fluoro-3-(4-(trifluoromethyl)phenyl)imidazo[1,2-a]pyridin-2-yl)-3-(4-fluorophenethyl)urea]	3000 to 10000
Cc1ccc2nc(NC(=O)Cc3ccc(C(F)(F)F)cc3)c(-c3ccc(F)cc3)n2c1 [Compound 186, N-(3-(4-fluorophenyl)-6-methylimidazo[1,2-a]pyridin-2-yl)-2-(4-(trifluoromethyl)phenyl)acetamide]	< 500
CC(C)(C)CC(=O)Nc1nc2ncc(Cl)cn2c1-c1cccc(Cl)c1 [Compound 319, N-(6-chloro-3-(3-chlorophenyl)imidazo[1,2-a]pyrimidin-2-yl)-3,3-dimethylbutanamide]	3000 to 10000
O=C(Cc1ccc(F)cc1)Nc1nc2ccccn2c1-c1cccc(OC(F)(F)F)c1 [Compound 344, 2-(4-fluorophenyl)-N-(3-(3-(trifluoromethoxy)phenyl)imidazo[1,2-a]pyridin-2-yl)acetamide]	< 500
O=C(Nc1nc2ccc(F)cn2c1-c1ccc(OC(F)(F)F)cc1)C1Cc2ccccc2C1 [Compound 292, N-(6-fluoro-3-(4-(trifluoromethoxy)phenyl)imidazo[1,2-a]pyridin-2-yl)-2,3-dihydro-1H-indene-2-carboxamide]	500 to 3000
O=C(Cc1ccccc1)Nc1nc2ccc(F)cn2c1-c1cccc(Cl)c1 [Compound 155, N-(3-(3-chlorophenyl)-6-fluoroimidazo[1,2-a]pyridin-2-yl)-2-phenylacetamide]	< 500
O=C(CC1CC2CCC1C2)Nc1nc2ccc(F)cn2c1-c1ccc(F)cc1 (stereo not shown) [Compound 138, 2-(bicyclo[2.2.1]heptan-2-yl)-N-(6-fluoro-3-(4-fluorophenyl)imidazo[1,2-a]pyridin-2-yl)acetamide]	< 500
CC(C)(C)OCC(=O)Nc1nc2ccc(F)cn2c1-c1ccc(C(F)(F)F)cc1 [Compound 206, 2-tert-butoxy-N-(6-fluoro-3-(4-(trifluoromethyl)phenyl)imidazo[1,2-a]pyridin-2-yl)acetamide]	3000 to 10000
CC(C)(C)OCCC(=O)Nc1nc2ccc(F)cn2c1-c1cccc(C(F)(F)F)c1 [Compound 287, 3-tert-butoxy-N-(6-fluoro-3-(3-(trifluoromethyl)phenyl)imidazo[1,2-a]pyridin-2-yl)propanamide]	500 to 3000
O=C(Cc1cccc(F)c1)Nc1nc2ccc(F)cn2c1-c1ccc(OC(F)(F)F)cc1 [Compound 240, N-(6-fluoro-3-(4-(trifluoromethoxy)phenyl)imidazo[1,2-a]pyridin-2-yl)-2-(3-fluorophenyl)acetamide]	< 500
O=C(CCCC(F)(F)F)Nc1nc2ccc(F)cn2c1-c1ccc(OC(F)(F)F)cc1 [Compound 174, 5,5,5-trifluoro-N-(6-fluoro-3-(4-(trifluoromethoxy)phenyl)imidazo[1,2-a]pyridin-2-yl)pentanamide]	< 500
CC(C(=O)Nc1nc2ccc(F)cn2c1-c1ccc(F)cc1)c1ccccc1 (stereo not shown) [Compound 109, N-(6-fluoro-3-(4-fluorophenyl)imidazo[1,2-a]pyridin-2-yl)-2-phenylpropanamide]	500 to 3000
O=C(CCC1CCCC1)Nc1nc2ccc(F)cn2c1-c1ccc(C(F)(F)F)cc1 [Compound 220, 3-cyclopentyl-N-(6-fluoro-3-(4-(trifluoromethyl)phenyl)imidazo[1,2-a]pyridin-2-yl)propanamide]	< 500
O=C(Cc1ccc(F)cc1)Nc1nc2ccccn2c1-c1ccc(OC(F)(F)F)cc1 [Compound 205, 2-(4-fluorophenyl)-N-(3-(4-(trifluoromethoxy)phenyl)imidazo[1,2-a]pyridin-2-yl)acetamide]	< 500

Same assay, conditions: SH-SY5Y native cell line, FLIPR assay (Table 3); read-out: SH-SY5Y EC50

EC50 [nM]	Compound
500 to 3000	CC(C)(C)CC(=O)Nc1nc2ccccn2c1-c1nccs1 [Compound 406, 3,3-dimethyl-N-(3-(thiazol-2-yl)imidazo[1,2-a]pyridin-2-yl)butanamide]
3000 to 10000	Cc1ccc2nc(NC(=O)CC(C)C(F)(F)F)c(-c3nccs3)n2n1 (stereo not shown) [Compound 388, 4,4,4-trifluoro-3-methyl-N-(6-methyl-3-(thiazol-2-yl)imidazo[1,2-b]pyridazin-2-yl)butan amide]
< 500	O=C(Nc1nc2ccc(F)cn2c1-c1nccs1)C1CCC(F)(F)CC1 [Compound 391, 4,4-difluoro-N-(6-fluoro-3-(thiazol-2-yl)imidazo[1,2-a]pyridin-2-yl)cyclohexanecarboxamide]

Same assay, conditions: SH-SY5Y native cell line, FLIPR assay (Table 6); read-out: SH-SY5Y EC50

EC50 [nM]	Compound
< 500	CC(C)(CC(=O)Nc1nc2ccc(C(F)(F)F)cn2c1C1CC1)C(F)(F)F [Compound 432, N-(3-cyclopropyl-6-(trifluoromethyl)imidazo[1,2-a]pyridin-2-yl)-4,4,4-trifluoro-3,3-dimethylbutanamide]
< 500	CC(C)(CC(=O)Nc1nc2ccc(C(F)(F)F)cn2c1C1CCCC1)C(F)(F)F [Compound 442, N-(3-cyclopentyl-6-(trifluoromethyl)imidazo[1,2-a]pyridin-2-yl)-4,4,4-trifluoro-3,3-dimethylbutanamide]
